Experimental data reported in the supplement of paper PMC4862054.

How the values were obtained:
Experiment in all cases: normalised viability (% of control), CellTiter-Blue; higher = more viable cells (about 100 = DMSO control)
[1] = system: CAL-85-1; details: 3000 nM; incubation time: 72 h
Outline: (§1)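 After 72 h on compound-loaded 384-well plates, breast cancer cell lines received 2.5 µl CellTiter-Blue reagent for 2 h at 37 °C. Fluorescence at 560/590 nm was scaled per plate so that vehicle was 100 and a positive kill control was 0. The value stands for normalised viability at a single listed concentration of the series.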

[2] = system: CAL-148; details: 3000 nM; incubation time: 72 h
Outline: as §1

[3] = system: DU-4475; details: 3000 nM; incubation time: 72 h
Outline: as §1

[4] = system: MDA-MB-453; details: 3000 nM; incubation time: 72 h
Outline: as §1

[5] = system: CAL-85-1; details: 10000 nM; incubation time: 72 h
Description: (§2)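 DSRT, CellTiter-Blue viability, 72 h incubation. Signal is normalised to DMSO and benzethonium chloride controls. Value is the normalised response at dose 9.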

[6] = system: CAL-148; details: 10000 nM; incubation time: 72 h
Description: as §2

[7] = system: HDQ-P1; details: 10000 nM; incubation time: 72 h
Description: as §2

[8] = system: DU-4475; details: 10000 nM; incubation time: 72 h
Description: as §2

[9] = system: MDA-MB-453; details: 10000 nM; incubation time: 72 h
Description: as §2

[10] = system: CAL-51; details: 10000 nM; incubation time: 72 h
Description: as §2

[11] = system: MFM-223; details: incubation time: 72 h
Outline: as §1

[12] = system: MDA-MB-468; details: incubation time: 72 h
Outline: as §1

[13] = system: SK-BR-3; details: incubation time: 72 h
Outline: as §1

[14] = system: CAL-85-1; details: incubation time: 72 h
Outline: as §1

[15] = system: BT-474; details: incubation time: 72 h
Outline: as §1

[16] = system: CAL-120; details: incubation time: 72 h
Outline: as §1

[17] = system: DU-4475; details: incubation time: 72 h
Outline: as §1

[18] = system: HCC1599; details: incubation time: 72 h
Outline: as §1

[19] = system: HCC1937; details: incubation time: 72 h
Outline: as §1

[20] = system: BT-549; details: incubation time: 72 h
Outline: as §1

[21] = system: MDA-MB-436; details: incubation time: 72 h
Outline: as §1

[22] = system: MDA-MB-231; details: incubation time: 72 h
Outline: as §1

[23] = system: HCC1143; details: incubation time: 72 h
Outline: as §1

[24] = system: MDA-MB-453; details: incubation time: 72 h
Outline: as §1

[25] = system: CAL-51; details: incubation time: 72 h
Outline: as §1

[26] = system: Hs578T; details: incubation time: 72 h
Outline: as §1

COc1cc2nccc(Oc3ccc(NC(=O)Nc4cc(C)on4)c(Cl)c3)c2cc1OC [Tivozanib]
Details | normalised viability [%]
[1] | 92.8
[2] | 94
[3] | 118
[4] | 51.9
[5] | 82.9
[6] | 96.8
[7] | 55.9
[8] | 107
[9] | 28.3
[10] | 40.7

normalised viability [%]
Details | 3 nM | 10 nM | 30 nM | 100 nM | 1000 nM | 10000 nM
[11] | – | 93.6 | – | – | 55.3 | 40.2
[12] | – | 103 | – | – | 111 | 51.1
[13] | – | 99.7 | – | – | 99.1 | 68.9
[14] | 100 | – | 107 | 103 | – | –
[15] | – | 111 | – | – | 96.4 | 62.8
[16] | – | 101 | – | – | 98.7 | 47.8
[17] | 103 | – | 101 | 119 | – | –
[18] | – | 121 | – | – | 98.8 | 79
[19] | – | 127 | – | – | 88.2 | 63
[20] | – | 82.7 | – | – | 97.6 | 36.5
[21] | – | 101 | – | – | 97.1 | 72.4
[22] | – | 87.8 | – | – | 78.1 | 43.1
[23] | – | 111 | – | – | 105 | 94.5
[24] | 98 | – | 92.9 | 96.3 | – | –
[25] | 100 | – | 103 | 96.3 | – | –
[26] | – | 109 | – | – | 84.8 | 58.2

CC1=C(/C=C/C(C)=C/C=C/C(C)=C/C(=O)O)C(C)(C)CCC1 [Tretinoin]
Details | normalised viability [%]
[1] | 88.5
[2] | 80.1
[3] | 99
[4] | 94.1
[5] | 90.6
[6] | 78.3
[7] | 122
[8] | 94.3
[9] | 96.9
[10] | 98

normalised viability [%]
Details | 3 nM | 10 nM | 30 nM | 100 nM | 1000 nM | 10000 nM
[11] | – | 92.6 | – | – | 89.7 | 84.3
[12] | – | 99 | – | – | 117 | 113
[13] | – | 103 | – | – | 66 | 45
[14] | 85.3 | – | 92.2 | 95.7 | – | –
[15] | – | 129 | – | – | 111 | 115
[16] | – | 82.5 | – | – | 81.2 | 92.8
[17] | 78.4 | – | 93.1 | 83.7 | – | –
[18] | – | 114 | – | – | 77.4 | 84.2
[19] | – | 106 | – | – | 80.6 | 88.1
[20] | – | 87.5 | – | – | 100 | 106
[21] | – | 97.9 | – | – | 81.6 | 95.5
[22] | – | 103 | – | – | 104 | 109
[23] | – | 86.2 | – | – | 89.3 | 88.1
[24] | 121 | – | 103 | 105 | – | –
[25] | 106 | – | 94.6 | 99.6 | – | –
[26] | – | 123 | – | – | 105 | 100

C1CN1c1nc(N2CC2)nc(N2CC2)n1 [Triethylenemelamine]
Details | normalised viability [%]
[1] | 104
[2] | 85.6
[3] | 98.7
[4] | 113
[5] | 72.8
[6] | 80
[7] | 101
[8] | 95.9
[9] | 40.9
[10] | 60.5

normalised viability [%]
Details | 3 nM | 10 nM | 30 nM | 100 nM | 1000 nM | 10000 nM
[11] | – | 99.4 | – | – | 98.3 | 64.8
[12] | – | 112 | – | – | 112 | 107
[13] | – | 105 | – | – | 109 | 105
[14] | 104 | – | 87.6 | 108 | – | –
[15] | – | 111 | – | – | 126 | 130
[16] | – | 112 | – | – | 106 | 98.7
[17] | 102 | – | 102 | 102 | – | –
[18] | – | 90.9 | – | – | 92.9 | 83.3
[19] | – | 86.2 | – | – | 72 | 75.3
[20] | – | 105 | – | – | 90.9 | 66.7
[21] | – | 105 | – | – | 96.5 | 102
[22] | – | 104 | – | – | 81.8 | 78.9
[23] | – | 97.8 | – | – | 102 | 93.1
[24] | 115 | – | 102 | 122 | – | –
[25] | 108 | – | 106 | 97.4 | – | –
[26] | – | 145 | – | – | 117 | 110
